According to the METLIN SMRT retention time set (Domingo-Almenara et al. 2019):

Test: gradient 5% acetonitrile 3 min, to 50% in 2 min, to 85% in 15 min, held 3 min, 100 µL/min
Conditions: column: Zorbax Extend-C18 2.1 x 50 mm; eluents: water / acetonitrile, 0.1% formic acid
Method in brief: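 The mobile phases were water and acetonitrile, each with 0.1% formic acid, pumped at 100 μL/min through a Zorbax Extend-C18 column (2.1 × 50 mm, 1.8 μm). Pure standards were injected as mixtures of ~100 molecules and detected by a quadrupole time-of-flight mass spectrometer in positive and negative ionization mode. Retention time came from computationally picked adduct peaks, each inspected by hand.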

| RP-LC retention time | SMILES |
| --- | --- |
| 600 s | Cc1cc2nn(CC(=O)NCc3ccc4c(c3)OCO4)c(=O)n2c(-c2ccccc2)n1 |
| 869 s | Cc1ccc(CNC(=O)c2ccc(-c3nnc4ccc(NC(=O)C5CCC5)cn34)cc2)cc1 |
| 649 s | CC(C)C(=O)Nc1c(C(=O)N2CCN(c3ccccn3)CC2)oc2ccccc12 |
| 560 s | COc1ccc(NC(=O)N2CC3CN(C)CC(C2)O3)cc1 |
| 786 s | CCN1CCN(S(=O)(=O)c2cccc(-c3nc(-c4ccc(C)cc4)no3)c2)CC1 |
| 649 s | CCn1c(CNC(=O)C2CCC2)nc2c1CN(S(=O)(=O)c1ccc(C)cc1)CC2 |
| 829 s | O=C(Nc1cccc(F)c1)C1CCN(S(=O)(=O)c2cc(C(=O)N3CCCC3)cs2)CC1 |
| 597 s | COc1ccc(C(=O)NCc2ccc3c(c2)ncn3C(C)C)cn1 |
| 702 s | Cc1noc(COC2CCN(C(=O)c3ccc4c(c3)OCO4)CC2)n1 |
| 714 s | COc1ccc(S(=O)(=O)N2CCCC(c3nn[nH]n3)C2)cc1 (configuration not stated) |
| 881 s | CC(C)NC(=O)c1ccc(OCC2CCCN2C(=O)c2cc(F)ccc2Cl)cc1 (configuration not stated) |
| 595 s | NC(=O)c1ccc(NC(=O)C2CCN(c3cc(N4CCCCC4)ncn3)CC2)cc1 |
| 602 s | CC1=C(c2ccc(F)cc2)S(=O)(=O)N=C1N1CCCN(C(=O)NC(C)(C)C)CC1 |
| 690 s | CCOC(=O)C1CCCN(CC(=O)Nc2nc(-c3ccccc3)cs2)C1 (configuration not stated) |
| 698 s | CCOC(=O)C1CCN(c2ncc(C(=O)Nc3ccc(OC)cc3)c(N)n2)CC1 |
| 940 s | CCOc1ccc(NC(=O)N2CCCC2c2nc(-c3ccc(OC)cc3)no2)cc1 (configuration not stated) |
| 1010 s | C=CCN1C(=O)COc2ccc(-c3nc(NC(=O)C(C)(C)C)sc3C)cc21 |

Further lines, the molecule ahead of its results:

| SMILES | RP-LC retention time |
| --- | --- |
| CC(=O)Nc1ccc(NC(=O)c2ccc(-c3ccnc(N4CCCC4)n3)cc2)cc1 | 663 s |
| CCOc1ccccc1NC(=O)CN1C(=O)C(C)(C)c2ccccc21 | 976 s |
| N#CC1(C(=O)Nc2ccc(F)c(F)c2)CC1 | 760 s |
| COc1ccc2[nH]c(=O)c(CCC(=O)NCc3cccc(OC)c3OC)cc2c1 | 694 s |
| COc1cccc(NC(=O)Cn2nc(N3CCSCC3)c3ccccc3c2=O)c1 | 908 s |
| O=[N+]([O-])c1c(NCCCO)cc(Nc2ccc(F)cc2)c2nonc12 | 676 s |
| C=CCn1c(SCC(=O)c2cc(C)n(CCOC)c2C)nc2sc(C)c(C)c2c1=O | 1140 s |
| CC(=O)N1CCCC(c2nc(CCNC(=O)C3CCC3)cs2)C1 (configuration not stated) | 625 s |
| Cc1cccc(-c2nc(Cn3nnc(-c4nc(-c5cccnc5)no4)c3C)c(C)o2)c1 | 1060 s |
| O=C(Cc1cccs1)NC1CC(=O)N(Cc2ccccc2)C1 (configuration not stated) | 712 s |
| CCN1C(=O)c2cc(S(=O)(=O)Nc3ccc(C)cc3)ccc2Oc2cccnc21 | 970 s |
| CSc1cccc(NC(=O)Cn2c(=O)n(-c3ccc(F)cc3)c(=O)c3c2cc(C)n3C)c1 | 896 s |
| CCOC(=O)C(=O)NCc1n[nH]c(=O)c2ccccc12 | 579 s |
| Cc1ccc(-c2csc(NC(=O)c3sc(-c4ccccc4)nc3C)n2)cc1 | 1300 s |
| CCc1noc(NC(C)=O)c1-c1ccc(C)c(S(=O)(=O)Nc2ccc(Cl)cc2C)c1 | 888 s |
| Cc1nn2c(CNC(=O)c3ccc(F)cc3)c(-c3ccccc3)nc2s1 | 840 s |
| CCOc1ccc(S(=O)(=O)N(CC(=O)N2CCNCC2)C(C)C)cc1 | 625 s |
| COc1ccccc1-c1noc(Cn2ncn3nc(-c4ccc(F)cc4)cc3c2=O)n1 | 996 s |
| c1ccc(-c2nc(-c3cnccn3)no2)c(OC2CCNC2)c1 (configuration not stated) | 615 s |
| Cn1cccc1C(=O)NC1CCCN(c2cc(N3CCCC3)ncn2)C1 (configuration not stated) | 639 s |
